Laboratory results: patent US4163799A, “Psychostimulant compounds” (Union Chimique Continentale U.C.C., priority 1975, dated 1979)
Structures can show the parent of a compound that is named as a salt.

How the values were obtained:
[1] = Motor activity in the mouse (photoelectric cell actimeter); assay type: in vivo, mouse (male, Swiss NMRI)
Protocol: (§1) All the experiments described below were carried out on male rats weighing between 170 and 220 g (Wistar AF strain) and male mice weighing between 18 and 23 g (Swiss NMRI strain), unless indicated to the contrary. All the experiments were conducted in a constant-temperature laboratory (22±1° C.). […] Unless indicated to the contrary 10 animals per batch were always used.
The motor activity was determined with the aid of photoelectric cell actimeters (Boissier and Simon, Arch. int. Pharmacodyn. 1965, 158, 212-221). Twelve animals per batch were always used as a minimum.

[2] = Antireserpine activity test, mouse; assay type: in vivo, mouse (male, Swiss NMRI); conditions: 8, 16, 32 mg/kg orally, reserpine 2.5 mg/kg IP 4 hours before
Protocol: as §1

[3] = Determination of acute toxicity in the mouse (LD50, Behrens and Karber method); parameters: species or system mouse (male, Swiss NMRI); conditions: in vivo
Protocol: as §1

[4] = Overall activity and wakefulness profile (conclusion of the study); assay type: in vivo, rat and mouse
[5] = Anticataleptic activity test (prochlorperazine); assay type: in vivo, rat (male, Wistar AF); conditions: 8 or 32 mg/kg ip or orally; prochlorperazine 8 mg/kg ip; homolateral paws, buddha, rocking plate tests
Protocol: as §1

[6] = Observation of animals, mouse; assay type: in vivo, mouse (male, Swiss NMRI)
Protocol: as §1

[7] = Motor activity in the rat (actimeter); assay type: in vivo, rat (male, 90-110 g)
Protocol: as §1
The motor activity was determined on male rats weighing between 90 and 110 g with the aid of the actimeter, the same instrument cited with regard to motor activity in the mouse.
The NaAHDH doses were given immediately before the actimeter was switched on.

[8] = Antioxotremorine activity test; assay type: in vivo, mouse (male, Swiss NMRI); conditions: 8, 16, 32 mg/kg orally or ip; oxotremorine 0.5 mg/kg IP
Protocol: as §1
In mice which received doses of 8, 16, and 32 mg/kg of NaAHDH orally or intraperitoneally the effects of oxotremorine (0.5 mg/kg IP) were unchanged, in terms of hyperthermia, trembling, lacrimation, hypersalivation, and defecation.

[9] = Interaction with convulsants: electric shock; assay type: in vivo, mouse (male, Swiss NMRI); conditions: 4, 16, 64 mg/kg orally 60 minutes before electric shock
Protocol: as §1

[10] = Stereotypy test with amphetamine; assay type: in vivo, rat (male, Wistar AF); conditions: 32 or 64 mg/kg orally 60 minutes before amphetamine 2 mg/kg IP
Protocol: as §1

[11] = Modification of hypnotic effects (pentobarbital), rat; assay type: in vivo, rat (male, Wistar AF); conditions: 16, 32, 64 mg/kg orally, with or 60 minutes before pentobarbital
Protocol: as §1

[12] = Perforated board test; assay type: in vivo
Protocol: as §1
The technique and apparatus described by Boissier and Simon (Physiol. Behav. 1967, 2, 444-448) were used. In these experiments 15 animals per group were used (except for 30 for the controls and 30 for the 32 mg/kg dose).

[13] = Observation of animals, rat; assay type: in vivo, rat (male, Wistar AF)
Protocol: as §1

[14] = Conditioned-inhibition test (four-plate test); assay type: in vivo, mouse (male, Swiss NMRI); conditions: 4, 8, 16, 32 and 64 mg/kg
Protocol: as §1
A simple conditioned-inhibition test was used, namely the four-plate test (Neuropharmacology, Aron et al, 1971, 10, 459-470).

[15] = Avoidance conditioning, two-compartment shuttle-box; assay type: in vivo, rat (male, Wistar AF); conditions: 16 and 64 mg/kg orally, previously trained rats
Protocol: as §1
This avoidance conditioning in the rat placed in a two-compartment shuttle-box described by Boissier and Simon (Therapie 1968, 23, 1267-1276) was studied.

[16] = 64 mg/kg IP, ** significant at 0.005
[17] = doses less than toxic, beginning with 4 mg/kg orally or ip
[18] = doses less than toxic, from 4 mg/kg orally or ip
[19] = doses very close to the lethal doses
[20] = only at doses very close to the lethal doses
[21] = 8 mg/kg orally 60 min before test
[22] = 16 mg/kg orally 60 min before test
[23] = 32 mg/kg orally 60 min before test
[24] = 64 mg/kg orally 60 min before test

SMILES: CC(O)CC(c1ccccc1)C(C(=O)O)c1ccccc1 (stereo not drawn) [NaAHDH, Sodium Salt of 5-Hydroxy-2,3-Diphenyl-Hexanoic Acid]
- number of beams interrupted, 30 + 5 min ([1]; 16 mg/kg IP): 44
- number of beams interrupted, 30 + 10 min ([1]; 16 mg/kg IP): 90
- number of beams interrupted, 30 + 15 min ([1]; 16 mg/kg IP): 133
- number of beams interrupted, 30 + 20 min ([1]; 16 mg/kg IP): 163
- number of beams interrupted, 30 + 25 min ([1]; 16 mg/kg IP): 195
- number of beams interrupted, 30 + 30 min ([1]; 16 mg/kg IP, * significant at 0.05): 214 ± 28
- number of beams interrupted, 30 min ([1]; 16 mg/kg IP): 376 ± 31
- number of beams interrupted, 30 + 5 min ([1]; 32 mg/kg IP): 65
- number of beams interrupted, 30 + 10 min ([1]; 32 mg/kg IP): 118
- number of beams interrupted, 30 + 15 min ([1]; 32 mg/kg IP): 183
- number of beams interrupted, 30 + 20 min ([1]; 32 mg/kg IP): 242
- number of beams interrupted, 30 + 25 min ([1]; 32 mg/kg IP): 285
- number of beams interrupted, 30 + 30 min ([1]; 32 mg/kg IP, test t 2,395): 325 ± 26
- number of beams interrupted, 30 min ([1]; 32 mg/kg IP): 450 ± 39
- number of beams interrupted, 30 + 5 min ([1]; 64 mg/kg IP): 90
- number of beams interrupted, 30 + 10 min ([1]; 64 mg/kg IP): 195
- number of beams interrupted, 30 + 15 min ([1]; 64 mg/kg IP): 297
- number of beams interrupted, 30 + 20 min ([1]; 64 mg/kg IP): 396
- number of beams interrupted, 30 + 25 min ([1]; 64 mg/kg IP): 429
- number of beams interrupted, 30 + 30 min [1, 16]: 558 ± 56
- number of beams interrupted, 30 min [1, 16]: 580 ± 47
- motor activity ([1]; 32 and 64 mg/kg ip, significant for the first 30 minutes, regular and constant up to 60th minute): increase in motor activity
- modification of hyperthermia or drooping eyelid induced by reserpine [2]: no modification of hyperthermia or drooping eyelid induced by reserpine
- LD50 ([3]; ip, intraperitoneally): 175 mg/kg
- LD50 ([3]; po, administered orally): 998 mg/kg
- signs of sympathetic excitation ([4]; by contrast to nooanaleptics): no signs of sympathetic excitation
- persistence of increase in activity and wakefulness ([4]; orally, after administration): about 2 hours
- modification of cataleptic condition [5]: no modification to the cataleptic condition
- excitation, reactivity to touch and sound stimuli [6, 17]: slight excitation was observed with enhanced reactivity to touch and sound stimuli
- diameter of the pupil [6, 18]: no change was observed in the diameter of the pupil
- hyperthermia [6, 18]: slight hyperthermia
- motor coordination, abnormal or stereotyped movements [6, 18]: not accompanied by lack of motor coordination or abnormal or stereotyped movements
- hyperthermia [6, 19]: about 2 °C
- toxic signs [6, 20]: trembling, hyperreactivity to very intense stimuli, interaggressivity, and convulsive phenomena extending to the rear paws
- number of beams interrupted, 30 + 5 min ([7]; 16 mg/kg ip): 39
- number of beams interrupted, 30 + 10 min ([7]; 16 mg/kg ip): 67
- number of beams interrupted, 30 + 15 min ([7]; 16 mg/kg ip): 104
- number of beams interrupted, 30 + 20 min ([7]; 16 mg/kg ip): 133
- number of beams interrupted, 30 + 25 min ([7]; 16 mg/kg ip): 156
- number of beams interrupted, 30 + 30 min ([7]; 16 mg/kg ip): 182 ± 39
- number of beams interrupted, 30 min ([7]; 16 mg/kg ip): 461 ± 32
- number of beams interrupted, 30 + 5 min ([7]; 32 mg/kg ip): 88
- number of beams interrupted, 30 + 10 min ([7]; 32 mg/kg ip): 191
- number of beams interrupted, 30 + 15 min ([7]; 32 mg/kg ip): 274
- number of beams interrupted, 30 + 20 min ([7]; 32 mg/kg ip): 372
- number of beams interrupted, 30 + 25 min ([7]; 32 mg/kg ip): 452
- number of beams interrupted, 30 + 30 min ([7]; 32 mg/kg ip): 531 ± 84
- number of beams interrupted, 30 min ([7]; 32 mg/kg ip): 631 ± 49
- number of beams interrupted, 30 + 5 min ([7]; 32 mg/kg vo (orally)): 31
- number of beams interrupted, 30 + 10 min ([7]; 32 mg/kg vo (orally)): 69
- number of beams interrupted, 30 + 15 min ([7]; 32 mg/kg vo (orally)): 100
- number of beams interrupted, 30 + 20 min ([7]; 32 mg/kg vo (orally)): 118
- number of beams interrupted, 30 + 25 min ([7]; 32 mg/kg vo (orally)): 131
- number of beams interrupted, 30 + 30 min ([7]; 32 mg/kg vo (orally)): 164 ± 58
- number of beams interrupted, 30 min ([7]; 32 mg/kg vo (orally)): 433 ± 43
- number of beams interrupted, 30 + 5 min ([7]; 64 mg/kg vo (orally)): 58
- number of beams interrupted, 30 + 10 min ([7]; 64 mg/kg vo (orally)): 124
- number of beams interrupted, 30 + 15 min ([7]; 64 mg/kg vo (orally)): 197
- number of beams interrupted, 30 + 20 min ([7]; 64 mg/kg vo (orally)): 265
- number of beams interrupted, 30 + 25 min ([7]; 64 mg/kg vo (orally)): 325
- number of beams interrupted, 30 + 30 min ([7]; 64 mg/kg vo (orally)): 396 ± 62
- number of beams interrupted, 30 min ([7]; 64 mg/kg vo (orally)): 517 ± 25
- motor activity ([7]; 16 and 32 mg/kg intraperitoneally): increase in motor activity
- motor activity ([7]; 32 and 64 mg/kg orally): increase in motor activity
- effects of oxotremorine (hyperthermia, trembling, lacrimation, hypersalivation, defecation) [8]: unchanged
- duration or appearance of the convulsions [9]: modified neither the duration nor appearance of the convulsions
- motility after the convulsion [9]: no increase in motility after the convulsion
- modification of amphetamine stereotyped movements [10]: no modification in stereotyped movements
- time taken to fall asleep or length of sleep [11]: no modification to the time taken to fall asleep or the length of sleep
- holes explored in 5 min [12, 21]: 101 percentage of controls
- movements made in 5 min [12, 21]: 102 percentage of controls
- holes explored in 5 min [12, 22]: 121 percentage of controls
- movements made in 5 min [12, 22]: 116 percentage of controls
- holes explored in 5 min [12, 23]: 140 percentage of controls
- movements made in 5 min [12, 23]: 159 percentage of controls
- holes explored in 5 min [12, 24]: 143 percentage of controls
- movements made in 5 min [12, 24]: 150 percentage of controls
- movements ([12]; orally): clear increase in movements
- holes explored ([12]; orally, significant from 16 mg/kg upward): large increase in the holes explored
- minimal effective dose ([12]; po, orally, read-out: dose from which increase in holes explored is significant): ≥ 16 mg/kg
- sexual behavior [13]: increase of sexual behavior
- excitation, reactivity to touch and sound stimuli [13, 17]: slight excitation was observed with enhanced reactivity to touch and sound stimuli
- diameter of the pupil [13, 18]: no change was observed in the diameter of the pupil
- hyperthermia [13, 18]: slight hyperthermia
- motor coordination, abnormal or stereotyped movements [13, 18]: not accompanied by lack of motor coordination or abnormal or stereotyped movements
- hyperthermia [13, 19]: about 2 °C
- toxic signs [13, 20]: trembling, hyperreactivity to very intense stimuli, interaggressivity, and convulsive phenomena extending to the rear paws
- animals' performance in four-plate test [14]: slight in increase in the animals' performance
- modification of conditioned inhibition [14]: no modification of conditioned inhibition
- change in avoidance conditioning [15]: no change in the conditioning
